Experimental data from ChEMBL document CHEMBL1147140, “Strongylophorine-26, an inhibitor of cancer cell Invasion: SAR revealed by synthesis of analogues” (J Nat Prod, 2007).
In brackets after ≈: the same amount, converted by molar mass. Activity calls are given as the source filed them. No cut-off for these calls is given here.

How the values were obtained:
MDA-MB-231 [1] = assay: Cytotoxicity against human MDA-MB-231 cells; assay type: cell-based
MDA-MB-231 [2] = assay: Anti-invasive activity against human MDA-MB-231 cells at <= 0.3 ug/ml; assay type: functional, cell-based

Row | Compound | Activity (MDA-MB-231 [2]) | also measured
1 | COC1=CC(=O)C=C(C[C@H]2[C@]3(C)CC[C@H]4C(C)(C)CCC[C@]4(C)[C@H]3CC[C@]2(C)O)C1=O (stereo in doubt; (+)-3) [listing 1 of 2 here] | – | IC50 (MDA-MB-231 [1]; mda-mb-231): 0.3 µg/mL (≈ 0.7 µM)
2 | COC1=CC(=O)C=C(C[C@H]2[C@]3(C)CC[C@H]4C(C)(C)CCC[C@]4(C)[C@H]3CC[C@]2(C)O)C1=O (stereo in doubt; (+)-3) [listing 2 of 2 here] | inactive | –
3 | COC1=CC(=O)C=C(C[C@H]2[C@]3(C)CC[C@H]4C(C)(C)CCC[C@]4(C)[C@H]3CC[C@]2(C)O)C1=O (stereo in doubt; (-)-3) [listing 1 of 2 here] | – | IC50 (MDA-MB-231 [1]; Homo sapiens, MDA-MB-231, read-out: IC50): 0.3 µg/mL (≈ 0.7 µM)
4 | COC1=CC(=O)C=C(C[C@H]2[C@]3(C)CC[C@H]4C(C)(C)CCC[C@]4(C)[C@H]3CC[C@]2(C)O)C1=O (stereo in doubt; (-)-3) [listing 2 of 2 here] | inactive | –
